Marks after values point to notes of the source that are not given here.
Legend:
[1] = biological target: CLK3 (Mus musculus, UniProt O35492); assay: Protein kinase assay ([γ-33P]-ATP, RS peptide substrate), CLK3; assay type: biochemical; conditions: for inhibition at 10 µM: 10 µM compound, read-out: Inhibition at 10 µM CLK3 (class symbol); for IC50: 15 µM ATP
Procedure: (§1) DYRK1A, 1B, 2, 3 (human, recombinant, expressed in E. coli as GST fusion proteins) and CLK1, 2, 3, and 4 (mouse, recombinant, expressed in E. coli as GST fusion proteins) were assayed as described for GSK-3 in Buffer A (supplemented extemporaneously with 0.15 mg BSA/mL + 1 mM DTT) with 1 µg of RS peptide ([…]) as a substrate.

[2] = biological target: T1, DYRK3 (Homo sapiens, UniProt O43781); assay: Protein kinase assay ([γ-33P]-ATP, RS peptide substrate), DYRK3; assay type: biochemical; conditions: for inhibition at 10 µM: 10 µM compound, read-out: Inhibition at 10 µM DYRK3 (class symbol); for IC50: 15 µM ATP
T1 sequence (O43781 1-588): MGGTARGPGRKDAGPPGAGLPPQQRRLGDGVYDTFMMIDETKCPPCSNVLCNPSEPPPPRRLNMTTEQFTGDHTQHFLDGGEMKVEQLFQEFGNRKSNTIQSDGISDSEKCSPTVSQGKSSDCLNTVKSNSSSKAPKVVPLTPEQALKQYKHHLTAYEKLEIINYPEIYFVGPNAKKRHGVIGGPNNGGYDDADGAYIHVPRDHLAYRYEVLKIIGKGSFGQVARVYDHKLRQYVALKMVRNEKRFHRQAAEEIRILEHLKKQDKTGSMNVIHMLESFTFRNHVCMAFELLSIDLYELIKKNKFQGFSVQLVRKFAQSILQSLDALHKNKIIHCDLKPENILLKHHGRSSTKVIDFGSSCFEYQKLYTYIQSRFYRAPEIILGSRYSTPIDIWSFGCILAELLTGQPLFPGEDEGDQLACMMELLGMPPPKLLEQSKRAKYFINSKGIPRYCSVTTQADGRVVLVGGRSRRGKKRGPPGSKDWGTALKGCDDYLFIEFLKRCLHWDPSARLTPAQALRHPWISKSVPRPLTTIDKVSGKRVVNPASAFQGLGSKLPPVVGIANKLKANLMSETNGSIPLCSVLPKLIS
Procedure: as §1

[3] = Kinetic solubility, laser nephelometry; assay type: physicochemical; conditions: phosphate buffer pH 7.4, nephelometry
Procedure: The kinetic solubility was determined using laser nephelometry. A stock solution of the test compounds in DMSO was prepared and further diluted with DMSO to achieve a dilution series of 8–12 solutions with different concentrations. The DMSO solutions (2 µL) were placed in a row on a 96-well plate and diluted with aqueous phosphate buffer pH 7.4 (198 µL). The well plate was scanned by a nephelometer (Nephelostar Plus, BMG Labtech, Ortenberg, Germany). Unsolved particles scatter the laser light which is detected by the nephelometer. The intensity of the scattered light is proportional to the particle concentration in the suspension. The intensity of the scattered light was plotted versus the concentration to obtain a kick off curve. The concentration at which the compounds began to precipitate was directly read out from the kick off curve.

[4] = biological target: T2, DYRK2 (Homo sapiens, UniProt Q92630); assay: Protein kinase assay ([γ-33P]-ATP, RS peptide substrate), DYRK2; assay type: biochemical; conditions: for inhibition at 10 µM: 10 µM compound, read-out: Inhibition at 10 µM DYRK2 (class symbol); for IC50: 15 µM ATP
T2 sequence (Q92630 1-601): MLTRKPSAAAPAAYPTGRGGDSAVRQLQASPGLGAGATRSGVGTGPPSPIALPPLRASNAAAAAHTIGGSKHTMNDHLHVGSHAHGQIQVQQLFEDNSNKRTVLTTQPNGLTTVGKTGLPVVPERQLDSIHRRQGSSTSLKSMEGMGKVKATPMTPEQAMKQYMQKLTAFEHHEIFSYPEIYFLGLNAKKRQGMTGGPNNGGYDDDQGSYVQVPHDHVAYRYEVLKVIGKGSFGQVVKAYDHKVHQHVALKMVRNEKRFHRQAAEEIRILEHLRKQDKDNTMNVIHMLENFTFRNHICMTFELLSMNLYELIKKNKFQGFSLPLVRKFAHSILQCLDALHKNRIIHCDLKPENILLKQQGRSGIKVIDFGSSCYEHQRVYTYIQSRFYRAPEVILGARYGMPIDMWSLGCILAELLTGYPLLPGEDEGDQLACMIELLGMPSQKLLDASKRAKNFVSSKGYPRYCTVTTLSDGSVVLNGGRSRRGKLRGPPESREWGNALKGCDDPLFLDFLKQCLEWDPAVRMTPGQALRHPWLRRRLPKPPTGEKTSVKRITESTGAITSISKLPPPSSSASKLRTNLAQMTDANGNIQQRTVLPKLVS
Procedure: as §1

[5] = biological target: CLK4 (Mus musculus, UniProt O35493); assay: Protein kinase assay ([γ-33P]-ATP, RS peptide substrate), CLK4; assay type: biochemical; conditions: 15 µM ATP
Procedure: as §1

[6] = biological target: T3, DYRK1A (Homo sapiens, UniProt Q13627); assay: Ligand-lipophilicity efficiency (pIC50 minus calculated logP)
Procedure: All new compounds were evaluated based on their physicochemical properties regarding Lipinski’s rule of five and the ligand-lipophilicity efficiency (LLE). Both concepts are used to assess the druglikeness of drug development candidates. […] LLE is calculated from pIC50 minus calculated logP [46].

[7] = biological target: CLK1 (Mus musculus, UniProt P22518); assay: Protein kinase assay ([γ-33P]-ATP, RS peptide substrate), CLK1; assay type: biochemical; conditions: 15 µM ATP
Procedure: as §1

[8] = biological target: T3, DYRK1A; assay: Protein kinase assay ([γ-33P]-ATP, RS peptide substrate), DYRK1A; assay type: biochemical; conditions: 15 µM ATP; read-out: IC50 DYRK 1A
[9] = biological target: DYRK1B (Homo sapiens, UniProt Q9Y463); assay: Protein kinase assay ([γ-33P]-ATP, RS peptide substrate), DYRK1B; assay type: biochemical; conditions: 15 µM ATP; read-out: IC50 DYRK 1B
Procedure: as §1

[10] = biological target: CLK2 (Mus musculus, UniProt O35491); assay: Protein kinase assay ([γ-33P]-ATP, RS peptide substrate), CLK2; assay type: biochemical; conditions: 15 µM ATP
Procedure: as §1

[11] = Thermodynamic solubility, shake-flask method with HPLC quantification; assay type: physicochemical; conditions: phosphate buffer pH 7.4, 25 °C
Procedure: For solubility assays an aqueous phosphate buffer pH 7.4 was used. The buffer was prepared by dissolving Na2HPO4 × 2 H2O (298 mg), KH2PO4 (19 mg) and NaCl (800 mg) in water (100 mL). The pH was adjusted to 7.4 by addition of hydrochloric acid. The thermodynamic solubility was determined using a shake-flask method with quantification by a HPLC method. The test compounds (500 µg) were incubated with aqueous phosphate buffer pH 7.4 (400 µL) in sealed Whatman MiniUniPrep vials (GE Healthcare, Freiburg, Germany). The mixtures were shaken at 25 °C and 400 rpm for 24–96 h (IKA KS 3000 ic control, IKA-Werke, Staufen, Germany). After 24 h, 48 h and 72 h, the mixtures were visually inspected for remaining solids and the solids were filtered off. The concentrations in the resulting saturated solutions were quantified by isocratic HPLC using calibration with external standard. If equilibrium was not reached after 72 h, solubility of a further sample was determined after 96 h. For calibration, a stock solution of 10 mM of the test compounds in DMSO was prepared and the stock solution was diluted with ACN to suitable concentrations. The AUC at the wavelength maxima was used for quantification.

[12] = Cytotoxicity, cell viability by tetrazolium dye assay (XTT assay); assay type: cell-based; conditions: human, HeLa cells, read-out: Viability of treated HeLa cells relative to control cells
Procedure: To evaluate the applicability of the 2-substituted indole-3-carbonitrile compounds in cell culture experiments, we assessed toxicity of 6f, 6h, 6s and 13b on HeLa cells by viability assays (Table 4).
The inhibitors were added to the cultured cells from stock solutions in DMSO to the desired final concentration. For cytotoxicity assays, HeLa cells were grown in 96-well plates (20,000–30,000 cells per well) and incubated with the test compounds for 3 days before cell viability was evaluated with the help of a tetrazolium dye assay (XTT assay, AppliChem GmbH, Darmstadt, Germany).

[13] = biological target: GSK-3; assay: Protein kinase assay ([γ-33P]-ATP, GS-1 substrate), GSK-3; conditions: for IC50: read-out: IC50 GSK3, 15 µM ATP
Procedure: First, the kinases were incubated with 10 µM solutions of the compounds and the residual activities compared to controls were measured.
Controls were performed with appropriate dilutions of DMSO. The GS-1 and RS peptide substrates were obtained from Proteogenix (Oberhausbergen, France).
After 30 min incubation at 30 °C, the reaction was stopped by harvesting onto P81 phosphocellulose supernatant (Whatman) using a FilterMate harvester (Packard) and washing in 1% phosphoric acid. Scintillation fluid was added and the radioactivity measured in a Packard counter [52].
All data points for construction of dose response curves were recorded in triplicate.

[14] = pIC50 (DYRK1A) minus calculated logP

DYRK1B, sequence (Q9Y463 whole entry): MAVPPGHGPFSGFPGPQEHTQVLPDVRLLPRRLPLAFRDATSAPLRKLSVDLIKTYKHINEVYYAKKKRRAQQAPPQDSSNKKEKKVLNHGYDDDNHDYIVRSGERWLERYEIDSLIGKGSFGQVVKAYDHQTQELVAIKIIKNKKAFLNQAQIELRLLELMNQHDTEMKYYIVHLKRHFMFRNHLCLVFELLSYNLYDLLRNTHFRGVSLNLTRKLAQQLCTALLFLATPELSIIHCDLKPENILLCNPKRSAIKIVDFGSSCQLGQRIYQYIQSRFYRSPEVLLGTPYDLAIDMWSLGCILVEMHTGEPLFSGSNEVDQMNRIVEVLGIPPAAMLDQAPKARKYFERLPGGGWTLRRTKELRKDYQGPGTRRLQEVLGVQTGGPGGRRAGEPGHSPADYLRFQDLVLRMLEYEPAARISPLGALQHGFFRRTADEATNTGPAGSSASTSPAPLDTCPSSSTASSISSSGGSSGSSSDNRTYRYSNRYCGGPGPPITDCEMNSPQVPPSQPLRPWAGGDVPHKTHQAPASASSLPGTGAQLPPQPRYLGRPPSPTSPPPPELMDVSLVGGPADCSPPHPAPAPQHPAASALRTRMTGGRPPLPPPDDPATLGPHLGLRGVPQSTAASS
CLK2, sequence (O35491 whole entry): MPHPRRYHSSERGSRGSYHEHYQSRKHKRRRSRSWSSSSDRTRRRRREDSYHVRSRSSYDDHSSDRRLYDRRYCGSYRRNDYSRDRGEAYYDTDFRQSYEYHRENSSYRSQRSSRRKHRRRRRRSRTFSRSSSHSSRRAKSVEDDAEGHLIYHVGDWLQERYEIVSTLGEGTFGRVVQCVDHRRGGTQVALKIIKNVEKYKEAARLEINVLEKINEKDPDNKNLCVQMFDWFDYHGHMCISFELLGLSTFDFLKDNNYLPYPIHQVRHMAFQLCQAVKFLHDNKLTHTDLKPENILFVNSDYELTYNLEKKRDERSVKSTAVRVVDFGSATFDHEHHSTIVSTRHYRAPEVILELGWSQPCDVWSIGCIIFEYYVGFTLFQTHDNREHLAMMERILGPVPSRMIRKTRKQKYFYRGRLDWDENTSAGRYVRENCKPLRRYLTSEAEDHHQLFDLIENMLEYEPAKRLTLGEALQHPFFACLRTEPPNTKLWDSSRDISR
CLK3, sequence (O35492 whole entry, the tested form may be a part): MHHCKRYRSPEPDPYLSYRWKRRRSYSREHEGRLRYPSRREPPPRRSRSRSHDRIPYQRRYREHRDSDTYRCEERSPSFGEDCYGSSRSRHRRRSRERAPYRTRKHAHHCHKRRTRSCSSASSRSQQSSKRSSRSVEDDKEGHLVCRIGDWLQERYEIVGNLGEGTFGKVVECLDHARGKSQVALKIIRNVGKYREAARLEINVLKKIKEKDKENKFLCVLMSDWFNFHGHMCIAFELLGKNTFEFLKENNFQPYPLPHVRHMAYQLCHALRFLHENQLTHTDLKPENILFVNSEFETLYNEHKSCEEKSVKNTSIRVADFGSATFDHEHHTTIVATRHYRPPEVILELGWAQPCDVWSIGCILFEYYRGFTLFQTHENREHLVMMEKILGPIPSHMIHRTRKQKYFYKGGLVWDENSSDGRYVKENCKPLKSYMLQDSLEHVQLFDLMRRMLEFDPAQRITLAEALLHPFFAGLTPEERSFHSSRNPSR
CLK4, sequence (O35493 whole entry): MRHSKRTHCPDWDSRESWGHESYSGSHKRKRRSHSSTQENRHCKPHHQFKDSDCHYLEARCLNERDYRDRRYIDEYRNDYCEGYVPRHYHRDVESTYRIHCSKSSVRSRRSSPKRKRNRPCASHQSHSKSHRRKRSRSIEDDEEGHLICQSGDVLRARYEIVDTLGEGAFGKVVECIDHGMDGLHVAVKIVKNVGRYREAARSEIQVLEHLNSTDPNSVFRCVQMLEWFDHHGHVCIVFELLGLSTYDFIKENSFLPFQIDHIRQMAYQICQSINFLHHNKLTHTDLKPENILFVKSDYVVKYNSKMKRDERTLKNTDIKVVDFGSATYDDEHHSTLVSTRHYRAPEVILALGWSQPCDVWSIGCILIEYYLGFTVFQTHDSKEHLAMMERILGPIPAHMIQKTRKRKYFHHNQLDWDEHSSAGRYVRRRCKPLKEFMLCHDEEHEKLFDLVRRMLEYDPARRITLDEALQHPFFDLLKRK
CLK1, sequence (P22518 whole entry): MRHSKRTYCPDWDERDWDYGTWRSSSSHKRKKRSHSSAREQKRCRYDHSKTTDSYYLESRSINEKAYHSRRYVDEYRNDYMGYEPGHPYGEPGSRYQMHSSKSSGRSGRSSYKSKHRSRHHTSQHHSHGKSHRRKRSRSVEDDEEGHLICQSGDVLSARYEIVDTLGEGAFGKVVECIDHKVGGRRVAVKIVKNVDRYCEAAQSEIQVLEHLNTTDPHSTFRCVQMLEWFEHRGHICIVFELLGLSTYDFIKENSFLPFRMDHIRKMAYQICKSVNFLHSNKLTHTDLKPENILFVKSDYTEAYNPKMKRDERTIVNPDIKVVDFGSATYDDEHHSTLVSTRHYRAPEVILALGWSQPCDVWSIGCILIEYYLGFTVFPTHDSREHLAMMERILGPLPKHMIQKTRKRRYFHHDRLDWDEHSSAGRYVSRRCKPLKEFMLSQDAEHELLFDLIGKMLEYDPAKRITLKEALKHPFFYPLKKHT

SMILES	inhibition at 10 µM [1] [%]	inhibition at 10 µM [2] [%]	Sexp., kin., pH 7.4 [3]	inhibition at 10 µM [4] [%]	IC50 [5] [nM]	LLE ([6]; Table S2)	LLE [6, 14]	IC50 [7] [nM]	IC50 [8] [nM]	IC50 [9] [nM]	IC50 [10] [nM]	IC50 [1] [nM]	IC50 [2] [nM]	Sexp., therm., pH 7.4 [11]	IC50 [4] [nM]	viability at 3 days, 1 µM [12] [%]	viability at 3 days, 3 µM [12] [%]	viability at 3 days, 10 µM [12] [%]	IC50 [13] [nM]	Inhibition at 10 µM GSK3 (class symbol) ([13]; 10 µM compound)
N#Cc1c(-c2cccnc2)[nH]c2c(I)cccc12 [Compound 6p, 7-Iodo-2-(pyridin-3-yl)-1H-indole-3-carbonitrile]	< 20	< 20	10.0 (7.21–12.9) µM	< 20	> 10000	3.89	3.89	200	80	300	> 10000									
N#Cc1c(-c2ccccc2)[nH]c2c(Br)cccc12 [Compound 6g, 7-Bromo-2-phenyl-1H-indole-3-carbonitrile]			14.8 ± 0.26 µM		33	3.34	3.34	67	25	120	433	> 10000	> 10000	<0.5 µM	> 10000					
O=C(O)c1nc2ccccc2c2[nH]c3c(I)cccc3c12 [KuFal194 (5), 10-iodo-11H-indolo[3,2-c]quinoline-6-carboxylic acid, reference compound]			5.28 (4.99–5.57) µM											< 0.5 µM		78	75	45		
N#Cc1c(CC(O)CO)[nH]c2c(Cl)cccc12 (centres unmarked) [Compound 14, 7-Chloro-2-(2,3-dihydroxypropyl)-1H-indole-3-carbonitrile]	< 20	< 20		< 20	2000	4.59	4.59	2000	2000	4200	10000			3447 ± 182 ^c µM					2000	
N#Cc1c[nH]c2c(Br)cccc12 [Compound 6b, 7-Bromo-1H-indole-3-carbonitrile]			142 ± 14 µM		4000			2900		5900	> 10000	> 10000	> 10000	136 ± 11 µM	> 10000					
N#Cc1c[nH]c2c(Cl)cccc12 [Compound 6a, 7-Chloro-1H-indole-3-carbonitrile]			116 ± 14 µM		> 10000					> 10000	> 10000	> 10000	> 10000	143 ± 6.3^c µM	> 10000				> 10000	
Cn1c(-c2ccccc2)c(C#N)c2cccc(I)c21 [Compound 13f, 7-Iodo-1-methyl-2-phenyl-1H-indole-3-carbonitrile]	< 20	< 20	37.5 (36.6–38.4) µM	< 20	1000	1.54	1.54	600	650	2100	> 10000			<0.5 µM						- (-: less than 20% inhibition at 10 µM, IC50 was not determined)
N#Cc1c(-c2ccccc2)[nH]c2c(I)cccc12 [Compound 6h, 7-Iodo-2-phenyl-1H-indole-3-carbonitrile]			4.57 (4.11–5.03) µM		50			80		570	2000	> 10000	> 10000	<0.5 µM	> 10000	97	97	87		
N#Cc1c(-c2ccccc2)[nH]c2c(Cl)cccc12 [Compound 6f, 7-Chloro-2-phenyl-1H-indole-3-carbonitrile]			14.7 ± 4.5 µM		120			70		> 10000	> 10000	> 10000	> 10000	<0.5 µM	> 10000	94	98	85		
N#Cc1c[nH]c2c(I)cccc12 [Compound 6c, 7-Iodo-1H-indole-3-carbonitrile]			261 (254–267) µM		1800			1900		1800	8000	> 10000	> 10000	45.2 (44.8–45.6) µM	8000					

Reference: article PMC6017736, “Indole-3-Carbonitriles as DYRK1A Inhibitors by Fragment-Based Drug Design” (Molecules : A Journal of Synthetic Chemistry and Natural …, 2018)
